These results are taken from patent US9073880B2, “2-(2-phenylethenyl) 1,3-benzodiazepine derivatives useful for the treatment of cancer” (Yissum Research Development Company of the Hebrew …, priority 2010, dated 2015).

Assay [1] concerns Human ovary cancer A2780 cells. Description: Cell proliferation, A2780 (Example 2). The assay is classed as cell-based. The note with it: 72 hours, 0.1% DMSO, methylene blue. The protocol: (§1) Human ovary cancer A2780 cells lines were seeded at a density of 5000 cells/well, human melanoma A375 cells were plated at a density of 2,500 cells/well, human colon carcinoma HCT15 cells were plated at a density of 3,000 cells/well, human prostate carcinoma PC3 cells were plated at a density of 1,500 cells/well, human breast carcinoma MCF7 cells were plated at a density of 5,000 cells/well, human breast carcinoma MDA MB 468 cells were plated at a density of 6,000 cells/well, human myeloma U266, RPMI8226 and CAG cells were plated at a density of 10,000 cells/well. All cells were plated in 96-well plates in 90 μl growth medium containing 10% FCS, 100 units/ml penicillin and 100 μg/ml streptomycin. Compound 3 was added a day later in […] of 1% DMSO in DDW to obtain final concentrations of 0, 0.1, 0.3, 1, 3, and 10 μM. The final concentration of DMSO (0.1% DMSO) was kept constant in all samples. […] The optical density values were read at 630 nm in ELISA plate reader. Non-adhered cells were exposed to WST-1 reagent for 5 hours following 72 hours treatment with the inhibitors, and optical density values were read at 630 nm in ELISA plate reader. The data was analyzed in Microsoft Excel, using the vehicle control as 100% proliferation. […]

Assay [2] has as its system human prostate carcinoma PC3 cells. Description: Cell proliferation, PC3 (Example 2). The assay is classed as cell-based. The note with it: PC-3, 72 hours, 0.1% DMSO, methylene blue. The protocol:
as §1

For assay [3], the system named is human colon carcinoma HCT15 cells. As to the kind of experiment: Cell proliferation, HCT15 (Example 2). The assay is classed as cell-based. To be noted: HCT-15, 72 hours, 0.1% DMSO, methylene blue. The protocol: as §1
In assay [4] the test system is human breast carcinoma MDA MB 468 cells. Description: Cell proliferation, MDA MB 468 (Example 2). The assay is classed as cell-based. To be noted: MDA-468, breast cancer, 72 hours, 0.1% DMSO. The protocol: as §1
A further assay deals with PKB. Description: IGF1-induced PKB activation in MCF7 cells (western blot). The assay is classed as cell-based, human. The note with it: 10 μM, 48 hr, 50 ng/ml IGF-1 5 minutes, FIG. 3. The protocol: Tyrosine autophosphorylation of the β-subunit of IGF-1R as well as downstream signaling induced by IGF-1R were assayed in human breast cancer MCF7 cells and in melanoma A375 cells. Cells were seeded in 6-well plates (250,000 A375 cells/well and 300,000 MCF7 cells/well) and 24 hours later medium was replaced by serum-free medium (RPMI supplemented with 100 units/ml penicillin and 100 μg/ml streptomycin). MCF7 cells were exposed for 48 hr to compound 3 at 10 μM concentration, and then stimulated for 5 minutes with 50 ng/ml IGF-1, washed twice with PBS and lysed by boiling sample buffer (10% glycerol, 50 mM Tris-HCl, pH 6.8, 3% SDS, and 5% (3-mercaptoethanol). Equal amounts of protein per lane were separated by 8% SDS-PAGE and transferred to a nitrocellulose membrane (Sartorius AG). Phosphorylated proteins were immunoblotted with anti-phosphoIGF-1R (pIGF-1R), anti-phosphotyrosine-IRS1 (pY-IRS I) and anti-phospho(T308)Akt (pPKB) antibodies. Detection was performed with horseradish peroxidase-conjugated secondary antibody using the ECL system. Blots were then stripped of antibodies, blocked with TBST with 5% low fat milk and re-probed with antibodies detecting both the phosphorylated and the non-phosphorylated corresponding proteins e.g. IGF-1Rβ, IRS1 and PKB.

The subject of a further assay is Akt/PKB pathway. Description: IGF1-induced Akt/PKB activation in A375 cells (Example 5). The assay is classed as cell-based, human. The protocol: The effect of compound 5 on IRS1 & IRS2 levels and its effect on IGF1-induced Akt/PKB activation and apoptosis in melanoma A375 cells were tested. Cells were seeded in 6-well plates (150,000 A375 cells/well) and 24 hours later medium was replaced by serum-free medium (RPMI supplemented with 100 units/ml penicillin and 100 μg/ml streptomycin), […], and then stimulated for 5 minutes with 50 ng/ml IGF-1, washed twice with PBS and lysed by boiling sample buffer (10% glycerol, 50 mM Tris-HCl, pH 6.8, 3% SDS, and 5% β-mercaptoethanol). Equal amounts of protein per lane were separated by 8% SDS-PAGE and transferred to a nitrocellulose membrane (Sartorius AG). To detect the inhibition of the Akt/PKB activation, phosphorylated proteins were immunoblotted with anti-phospho(T308)Akt (pT308-PKB) and anti-phospho-Tuberin/TSC2 (pTuberin) antibodies. To visualize cell death induced by compound 5, the intact and the cleaved PARP were immunoblotted with anti-PARP antibody. The changes in the levels of IRS1 and IRS2 were detected with specific antibodies. Detection was performed with horseradish peroxidase-conjugated secondary antibody using the ECL system. Blots were then stripped of antibodies, blocked with TBST with 5% low fat milk and re-probed with antibodies detecting both the phosphorylated and the non-phosphorylated Akt/PKB. […]

Turning to `O=c1c(O)cc2cnc(/C=C/c3cc(O)c(O)c(Br)c3)sc-2c1O` [Compound 3], the IC50 in assay [1] amounted to 300 nM; in assay [2], 2000 nM; in assay [3], 1000 nM; in assay [4], 3800 nM. The “IGF1-induced activation of the downstream signaling component PKB” value in the assay with PKB was “significantly inhibited”.

Turning to `O=c1c(O)cc2cnc(/C=C/c3ccc(O)c(O)c3Br)sc-2c1O` [Compound 5], the “IGF1-induced activation of the Akt/PKB pathway” value in the assay with Akt/PKB pathway (3 μM, 48 hr, 50 ng/ml IGF-1 5 minutes, FIG. 6B) was “blocked the IGF1-induced activation of the Akt/PKB pathway”. Besides, in the assay on Akt/PKB pathway (5 μM for 4 hr, washed, 24 hr after washout, FIG. 6C), the “IGF1-induced activation of PKB/Akt after washout” value was “blocked”.
